According to the NIST ThermoML archive (doi:10.1021/je400498a):
Numbers after ± are expanded uncertainties.

Legend:
[1] = Molar enthalpy of transition or fusion; settings: Crystal; DSC
[2] = for vapor or sublimation pressure: 298.15 K, Gas chromatography

| SMILES | Molar enthalpy of transition or fusion [1] [kcal/mol] | vapor or sublimation pressure ([2]; Crystal) [kPa] | vapor or sublimation pressure ([2]; Liquid) [kPa] | Normal melting temperature ([2]; Crystal, DTA) [°C] |
| --- | --- | --- | --- | --- |
| NC12CC3CC(CC(C3)C1)C2 [tricyclo(3.3.1.1:3,7)decan-1-amine] | 1.74 ± 0.12 | 0.0115 ± 0.0043 | 0.021 ± 0.003 | 204.2 ± 1.8 |
| CCCCCCCCCCCCCCN [1-tetradecanamine] |  | 0.00012 ± 8e-05 |  |  |
| CCCCCCCCCCCCN [1-dodecanamine] |  | 0.0016 ± 0.0002 |  |  |
| CC(C)(N)Cc1ccccc1 [2-methyl-1-phenylpropan-2-amine] |  |  | 0.035 ± 0.008 |  |
| CC(N)C12CC3CC(CC(C3)C1)C2 (centres undefined) [1-(adamantan-1-yl)ethan-1-amine] |  |  | 0.003 ± 0.002 |  |
| N[C@@H]1C[C@H]1c1ccccc1 (relative stereo) [trans-2-phenylcyclopropylamine] |  |  | 0.028 ± 0.01 |  |
